Legend:
Format in all cases: in vivo
[1] = test system: Ipomoea hederacea (IPOHE); assay: Pre-emergence Test, Ipomoea hederacea (IPOHE); conditions: 1000 g/ha, evaluated after 13 days
[2] = test system: Echinochloa crus-galli (ECHCG); assay: Post-emergence Test, Echinochloa crus-galli (ECHCG); design: key to percentage damage caused to the plant, ECHCG (five-point scale): 5=81-100%, 4=61-80%, 3=41-60%, 2=21-40%, 1=0-20% damage; conditions: evaluated after 13 days
Method in brief: (§1)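 Tested at 1000 g/ha unless otherwise stated. Plants were held at 24/16 °C day/night with a 14 h light period. Percent damage was read at 13 days and reported in five bands.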

[3] = test system: Setaria faberi (SETFA); assay: Post-emergence Test, Setaria faberi (SETFA); design: key to percentage damage caused to the plant, SETFA (five-point scale): 5=81-100%, 4=61-80%, 3=41-60%, 2=21-40%, 1=0-20% damage; conditions: evaluated after 13 days
Method in brief: as §1

[4] = test system: Amaranthus retoflexus (AMARE); assay: Pre-emergence Test, Amaranthus retoflexus (AMARE); conditions: 1000 g/ha, evaluated after 13 days
[5] = test system: Setaria faberi (SETFA); assay: Pre-emergence Test, Setaria faberi (SETFA); conditions: 1000 g/ha, evaluated after 13 days
[6] = test system: Zea mays (ZEAMX); assay: Post-emergence Test, Zea mays (ZEAMX); design: key to percentage damage caused to the plant, ZEAMX (five-point scale): 5=81-100%, 4=61-80%, 3=41-60%, 2=21-40%, 1=0-20% damage; conditions: evaluated after 13 days
Method in brief: as §1

[7] = test system: Amaranthus palmeri (AMAPA); assay: Pre-emergence Test, Amaranthus palmeri (AMAPA); conditions: 1000 g/ha, evaluated after 13 days
[8] = test system: Echinochloa crus-galli (ECHCG); assay: Pre-emergence Test, Echinochloa crus-galli (ECHCG); conditions: 1000 g/ha, evaluated after 13 days
[9] = test system: Ipomoea hederacea (IPOHE); assay: Post-emergence Test, Ipomoea hederacea (IPOHE); design: key to percentage damage caused to the plant, IPOHE (five-point scale): 5=81-100%, 4=61-80%, 3=41-60%, 2=21-40%, 1=0-20% damage; conditions: evaluated after 13 days
Method in brief: as §1

[10] = test system: Zea mays (ZEAMX); assay: Pre-emergence Test, Zea mays (ZEAMX); conditions: 1000 g/ha, evaluated after 13 days
[11] = test system: Amaranthus palmeri (AMAPA); assay: Post-emergence Test, Amaranthus palmeri (AMAPA); design: key: 5=81-100%, 4=61-80%, 3=41-60%, 2=21-40%, 1=0-20% damage; conditions: evaluated after 13 days
Method in brief: as §1

[12] = test system: Amaranthus retoflexus (AMARE); assay: Post-emergence Test, Amaranthus retoflexus (AMARE); design: key to percentage damage caused to the plant, AMARE (five-point scale): 5=81-100%, 4=61-80%, 3=41-60%, 2=21-40%, 1=0-20% damage; conditions: evaluated after 13 days
Method in brief: as §1

CCn1c(Cn2ccc(Cl)n2)cc(=O)c(C(=O)O)c1-c1ccc(F)c(Cl)c1 [Compound 28, 2-(3-chloro-4-fluoro-phenyl)-6-[(3-chloropyrazol-1-yl)methyl]-1-ethyl-4-oxo-pyridine-3-carboxylic acid]
1 (1=0-20%): Pre-emergence Test IPOHE, percentage damage caused to the plant (five-point scale) [1] | percentage damage caused to the plant, IPOHE (five-point scale) ([9]; 1000 g/ha) | percentage damage caused to the plant, AMAPA (five-point scale) ([11]; 250 g/Ha) | percentage damage caused to the plant, AMARE (five-point scale) ([12]; 250 g/Ha)
5 (5=81-100%): Pre-emergence Test SETFA, percentage damage caused to the plant (five-point scale) [5] | Pre-emergence Test ECHCG, percentage damage caused to the plant (five-point scale) [8]
0: Pre-emergence Test AMARE, percentage damage caused to the plant (five-point scale) [4] | percentage damage caused to the plant, ZEAMX (five-point scale) ([6]; 250 g/Ha) | Pre-emergence Test AMAPA, percentage damage caused to the plant (five-point scale) [7] | Pre-emergence Test ZEAMX, percentage damage caused to the plant (five-point scale) [10] | percentage damage caused to the plant, AMARE (five-point scale) ([12]; 1000 g/ha)
2 (2=21-40%): percentage damage caused to the plant, AMAPA (five-point scale) ([11]; 1000 g/ha)
3 (3=41-60%): percentage damage caused to the plant, ECHCG (five-point scale) ([2]; 250 g/Ha)
4 (4=61-80%): percentage damage caused to the plant, ECHCG (five-point scale) ([2]; 1000 g/ha) | percentage damage caused to the plant, SETFA (five-point scale) ([3]; 250 g/Ha) | percentage damage caused to the plant, SETFA (five-point scale) ([3]; 1000 g/ha) | percentage damage caused to the plant, ZEAMX (five-point scale) ([6]; 1000 g/ha) | percentage damage caused to the plant, IPOHE (five-point scale) ([9]; 250 g/Ha)

CCn1c(Cn2ccc(C(F)(F)F)n2)cc(=O)c(C(=O)O)c1-c1ccc(Cl)c(F)c1 [Compound 30, 2-(4-chloro-3-fluoro-phenyl)-1-ethyl-4-oxo-6-[[3-(trifluoromethyl)pyrazol-1-yl]methyl]pyridine-3-carboxylic acid]
5 (5=81-100%): percentage damage caused to the plant, SETFA (five-point scale) ([3]; 1000 g/ha) | Pre-emergence Test SETFA, percentage damage caused to the plant (five-point scale) [5] | Pre-emergence Test ECHCG, percentage damage caused to the plant (five-point scale) [8] | Pre-emergence Test ZEAMX, percentage damage caused to the plant (five-point scale) [10]
4 (4=61-80%): Pre-emergence Test IPOHE, percentage damage caused to the plant (five-point scale) [1] | percentage damage caused to the plant, ECHCG (five-point scale) ([2]; 1000 g/ha) | percentage damage caused to the plant, SETFA (five-point scale) ([3]; 250 g/Ha) | percentage damage caused to the plant, ZEAMX (five-point scale) ([6]; 1000 g/ha) | percentage damage caused to the plant, IPOHE (five-point scale) ([9]; 250 g/Ha) | percentage damage caused to the plant, AMARE (five-point scale) ([12]; 1000 g/ha)
0: Pre-emergence Test AMARE, percentage damage caused to the plant (five-point scale) [4] | percentage damage caused to the plant, AMAPA (five-point scale) ([11]; 250 g/Ha)
3 (3=41-60%): percentage damage caused to the plant, ECHCG (five-point scale) ([2]; 250 g/Ha) | percentage damage caused to the plant, ZEAMX (five-point scale) ([6]; 250 g/Ha)
2 (2=21-40%): percentage damage caused to the plant, IPOHE (five-point scale) ([9]; 1000 g/ha) | percentage damage caused to the plant, AMAPA (five-point scale) ([11]; 1000 g/ha)
1 (1=0-20%): Pre-emergence Test AMAPA, percentage damage caused to the plant (five-point scale) [7] | percentage damage caused to the plant, AMARE (five-point scale) ([12]; 250 g/Ha)

CCn1c(Cn2ccc(C(F)(F)F)n2)cc(=O)c(C(=O)O)c1-c1ccc(F)c(F)c1 [Compound 31, 2-(3,4-difluorophenyl)-1-ethyl-4-oxo-6-[[3-(trifluoromethyl)pyrazol-1-yl]methyl]pyridine-3-carboxylic acid]
5 (5=81-100%): Pre-emergence Test SETFA, percentage damage caused to the plant (five-point scale) [5] | Pre-emergence Test ECHCG, percentage damage caused to the plant (five-point scale) [8]
1 (1=0-20%): Pre-emergence Test IPOHE, percentage damage caused to the plant (five-point scale) [1] | percentage damage caused to the plant, ZEAMX (five-point scale) ([6]; 250 g/Ha) | percentage damage caused to the plant, AMARE (five-point scale) ([12]; 250 g/Ha)
0: Pre-emergence Test AMARE, percentage damage caused to the plant (five-point scale) [4] | Pre-emergence Test AMAPA, percentage damage caused to the plant (five-point scale) [7] | Pre-emergence Test ZEAMX, percentage damage caused to the plant (five-point scale) [10] | percentage damage caused to the plant, AMAPA (five-point scale) ([11]; 250 g/Ha)
3 (3=41-60%): percentage damage caused to the plant, ZEAMX (five-point scale) ([6]; 1000 g/ha)
2 (2=21-40%): percentage damage caused to the plant, ECHCG (five-point scale) ([2]; 250 g/Ha) | percentage damage caused to the plant, IPOHE (five-point scale) ([9]; 1000 g/ha) | percentage damage caused to the plant, AMAPA (five-point scale) ([11]; 1000 g/ha) | percentage damage caused to the plant, AMARE (five-point scale) ([12]; 1000 g/ha)
4 (4=61-80%): percentage damage caused to the plant, ECHCG (five-point scale) ([2]; 1000 g/ha) | percentage damage caused to the plant, SETFA (five-point scale) ([3]; 250 g/Ha) | percentage damage caused to the plant, SETFA (five-point scale) ([3]; 1000 g/ha) | percentage damage caused to the plant, IPOHE (five-point scale) ([9]; 250 g/Ha)

CCn1c(Cn2ccc(C(F)(F)F)n2)cc(=O)c(C(=O)O)c1-c1ccc(F)c(Cl)c1 [Compound 32, 2-(3-chloro-4-fluoro-phenyl)-1-ethyl-4-oxo-6-[[3-(trifluoromethyl)pyrazol-1-yl]methyl]pyridine-3-carboxylic acid]
5 (5=81-100%): Pre-emergence Test SETFA, percentage damage caused to the plant (five-point scale) [5] | Pre-emergence Test ECHCG, percentage damage caused to the plant (five-point scale) [8]
3 (3=41-60%): Pre-emergence Test IPOHE, percentage damage caused to the plant (five-point scale) [1] | percentage damage caused to the plant, ECHCG (five-point scale) ([2]; 250 g/Ha) | Pre-emergence Test AMARE, percentage damage caused to the plant (five-point scale) [4] | percentage damage caused to the plant, ZEAMX (five-point scale) ([6]; 1000 g/ha)
1 (1=0-20%): percentage damage caused to the plant, ZEAMX (five-point scale) ([6]; 250 g/Ha) | percentage damage caused to the plant, AMARE (five-point scale) ([12]; 250 g/Ha)
2 (2=21-40%): percentage damage caused to the plant, IPOHE (five-point scale) ([9]; 1000 g/ha) | percentage damage caused to the plant, AMAPA (five-point scale) ([11]; 250 g/Ha) | percentage damage caused to the plant, AMAPA (five-point scale) ([11]; 1000 g/ha)
4 (4=61-80%): percentage damage caused to the plant, ECHCG (five-point scale) ([2]; 1000 g/ha) | percentage damage caused to the plant, SETFA (five-point scale) ([3]; 250 g/Ha) | percentage damage caused to the plant, SETFA (five-point scale) ([3]; 1000 g/ha) | Pre-emergence Test AMAPA, percentage damage caused to the plant (five-point scale) [7] | percentage damage caused to the plant, IPOHE (five-point scale) ([9]; 250 g/Ha) | Pre-emergence Test ZEAMX, percentage damage caused to the plant (five-point scale) [10] | percentage damage caused to the plant, AMARE (five-point scale) ([12]; 1000 g/ha)

Cn1c(Cn2ccc(C(F)(F)F)n2)cc(=O)c(C(=O)O)c1-c1ccc(Cl)c(Cl)c1 [Compound 33, 2-(3,4-dichlorophenyl)-1-methyl-4-oxo-6-[[3-(trifluoromethyl)pyrazol-1-yl]methyl]pyridine-3-carboxylic acid]
3 (3=41-60%): percentage damage caused to the plant, ECHCG (five-point scale) ([2]; 250 g/Ha) | percentage damage caused to the plant, SETFA (five-point scale) ([3]; 250 g/Ha) | Pre-emergence Test AMAPA, percentage damage caused to the plant (five-point scale) [7] | percentage damage caused to the plant, IPOHE (five-point scale) ([9]; 1000 g/ha) | percentage damage caused to the plant, AMARE (five-point scale) ([12]; 1000 g/ha)
5 (5=81-100%): Pre-emergence Test SETFA, percentage damage caused to the plant (five-point scale) [5] | Pre-emergence Test ECHCG, percentage damage caused to the plant (five-point scale) [8]
1 (1=0-20%): percentage damage caused to the plant, ZEAMX (five-point scale) ([6]; 250 g/Ha) | percentage damage caused to the plant, AMAPA (five-point scale) ([11]; 250 g/Ha) | percentage damage caused to the plant, AMARE (five-point scale) ([12]; 250 g/Ha)
2 (2=21-40%): percentage damage caused to the plant, ZEAMX (five-point scale) ([6]; 1000 g/ha) | percentage damage caused to the plant, AMAPA (five-point scale) ([11]; 1000 g/ha)
0: Pre-emergence Test IPOHE, percentage damage caused to the plant (five-point scale) [1] | Pre-emergence Test AMARE, percentage damage caused to the plant (five-point scale) [4] | Pre-emergence Test ZEAMX, percentage damage caused to the plant (five-point scale) [10]
4 (4=61-80%): percentage damage caused to the plant, ECHCG (five-point scale) ([2]; 1000 g/ha) | percentage damage caused to the plant, SETFA (five-point scale) ([3]; 1000 g/ha) | percentage damage caused to the plant, IPOHE (five-point scale) ([9]; 250 g/Ha)

Reference: patent US20250098679A1, “HERBICIDAL PYRIDONE DERIVATIVES” (SYNGENTA CROP PROTECTION AG, priority 2021, published 2025)
